This is an account of results in publication PMC8878464, “Fenchone Derivatives as a Novel Class of CB2 Selective Ligands: Design, Synthesis, X-ray Structure and Therapeutic Potential” (Molecules, 2022).

One test has as its target human CB2R (hCB2R) (Homo sapiens, UniProt P34972). Briefly: [3H]CP-55,940 competition displacement binding assay, hCB2R membranes. The following applies: Ki (nM) hCB2R. The procedure:
The compounds were further characterized using a radioligand binding assay to determine their affinities for CB1R and CB2R based on each test compound’s ability to displace the radiolabeled CB1R/CB2R agonist CP-55,940 from membranes of cells expressing the human CB1R and CB2R [24].
Membranes from cells expressing hCB1R and hCB2R were purchased from Charles River, (Cat#A317 and A318, respectively; OH, USA). Solutions of test compounds ranging from 0.1 nM to 10 mM were prepared in DMSO. The desired amount of membrane preparation was diluted with ice-cold assay buffer (50 mM Tris-HCl, 2.5 mM EDTA, 5 mM MgCl2, 0.1% BSA, pH 7.4) and was vortexed. […] The assays were incubated for 90 min at 30 °C and then immediately filtered on WHATMAN GF/B Filter Paper (Fired) using a Brandel M-24R Harvester followed by six washes with ice cold wash buffer (50 mM Tris-HCl, 2.5 mM EDTA, 5 mM MgCl2, 0.1% BSA, pH 7.4). Radioactivity was detected by adding the Filter Paper directly to the ULTIMA GOLD scintillation cocktail (PerkinElmer, Waltham, MA, USA), incubation at 20 °C for 60 min and then counted using a Tri-Carb 4910TR liquid scintillation counter (PerkinElmer, Waltham, MA, USA).
Each curve represents the mean of three experiments performed in triplicate.

A further test addresses T1, hCB2R (Homo sapiens, UniProt P34972).
T1 construct: purchased Charles River A318; host or cells: CHO-K1 cells
As to the kind of experiment: [35S]GTPγS binding assay at hCB2R. The format is biochemical. The procedure: The method used for measuring agonist-stimulated binding of [^35S]GTPγS was based on a described protocol. Membranes (5 μg protein) were incubated in GTPγS assay buffer (50 mM Tris HCl (pH 7.4), 0.2 mM EGTA, 9 mM MgCl2, 150 mM NaCl, 1 mg/mL BSA) containing 100 μM GDP, 0.05 nM [^35S]GTPγS and test compounds at various concentrations. Vacuum filtration was used to separate bound ligand from free ligand. We used 10 μM GTPS to determine nonspecific binding. Basal binding was assayed in the absence of the ligand and in the presence of GDP.
Each symbol represents the mean percentage increase in [^35S]GTPγS binding ± SE.

Test [1] relates to zymosan-induced paw inflammation. Briefly: Zymosan-induced hind paw swelling (oedema) in mice. The format is in vivo. As to conditions: 6 h after 60 μg zymosan paw injection.
Test [2] relates to zymosan-induced hyperalgesia. Briefly: von Frey monofilament pain assay in zymosan-injected mice. The format is in vivo. As to conditions: 15 and 25 mg/kg ip, after 6 h, p < 0.01. The method, then: We injected 40 μL of 1.5% (w/v) zymosan A in 0.9% saline into the right hind paw of the mice to induce inflammation. […] Control mice were injected with vehicle. Paw swelling and pain perception were measured after 2, 6 and 24 h.

Another test deals with TNF-α. Briefly: Serum TNF-α (ELISA) after zymosan injection in mice. It counts as in vivo. As to conditions: 24 h after zymosan. The procedure:
Control mice were injected with vehicle.
A mouse TNFα ELISA kit was used according to the manufacturer’s instructions (R&D Systems, Minneapolis, MN, USA).

A word on the Ki: it is the equilibrium dissociation constant of an inhibitor or competing ligand from its target. In general, EC50 refers to the midpoint of the concentration-response curve.

Chain of human CB2R (hCB2R) (P34972 whole entry): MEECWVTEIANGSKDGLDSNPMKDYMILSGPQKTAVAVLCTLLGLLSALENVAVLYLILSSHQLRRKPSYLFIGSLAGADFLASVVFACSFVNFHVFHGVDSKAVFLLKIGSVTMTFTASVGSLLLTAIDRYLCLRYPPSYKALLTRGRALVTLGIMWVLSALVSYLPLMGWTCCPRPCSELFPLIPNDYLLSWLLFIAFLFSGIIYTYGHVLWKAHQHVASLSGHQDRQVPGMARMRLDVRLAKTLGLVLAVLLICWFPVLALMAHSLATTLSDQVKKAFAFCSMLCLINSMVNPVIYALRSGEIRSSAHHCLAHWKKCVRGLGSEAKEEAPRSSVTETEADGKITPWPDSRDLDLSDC
T1 sequence (P34972 whole entry): as above

`CCCCCCC(C)(C)c1cc(OC)c(C2(O)C3(C)CCC(C3)C2(C)C)c(OC)c1` (centres unmarked) [Compound 1d, 2-(2′,6′-Dimethoxy-4′-(2″-methyloctan-2″-yl)phenyl)-1,3,3-trimethylbicyclo[2.2.1]heptan-2-ol] showed a Ki on human CB2R (hCB2R) of 3.51 nM. The same molecule returned a 50% effective concentration (EC50) on hCB2R (increase in [35S]GTPγS binding to hCB2R, two independent experiments in triplicate) of 2.59 nM. The “E(max)%” value at hCB2R (maximal effect as percentage of HU-308 response at 1 µM) was 89.6%. For the same molecule, the reduction in swelling amounted to 30% in test [1] (15 mg/kg ip) and 54% in test [1] (25 mg/kg ip). In addition, the “anti-nociceptive effect (paw withdrawal threshold, von Frey)” value in test [2] is “strong anti-nociceptive effects”. The “inhibition of TNF-α serum levels” value with TNF-α (15 mg/kg ip) is on record as 26%; in the test with TNF-α (25 mg/kg ip) it was 40%.
